In ChEMBL document CHEMBL1201862, “PubChem BioAssay data set” (2004):
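Test compounds were applied to cells in 96-well plates for 48 hours at 5 doses. At the GI50, growth is halved.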 The source made the active and inactive calls. Rule as the data show it: active = GI50 up to about 1.1 µM and inactive = higher.

How the values were obtained:
Assay in all cases: NCI anticancer screen, dose series, 48 h
[1] = system: 786-0
[2] = system: A498
[3] = system: A549
[4] = system: ACHN
[5] = system: BT-549
[6] = system: CAKI-1
[7] = system: CCRF-CEM
[8] = system: COLO 205
[9] = system: EKVX
[10] = system: HCC 2998
[11] = system: HCT-15
[12] = system: HL-60
[13] = system: HOP-62
[14] = system: HT-29
[15] = system: Hs-578T
[16] = system: IGROV-1
[17] = system: K562
[18] = system: KM12
[19] = system: M14
[20] = system: MCF7
[21] = system: MDA-MB-231
[22] = system: MDA-MB-435
[23] = system: MDA-N
[24] = system: MOLT-4
[25] = system: Malme-3M
[26] = system: NCI-H23
[27] = system: NCI-H460
[28] = system: NCI-H522
[29] = system: NCI/ADR-RES
[30] = system: OVCAR-3
[31] = system: OVCAR-5
[32] = system: OVCAR-8
[33] = system: PC-3
[34] = system: RPMI-8226
[35] = system: RXF 393
[36] = system: SF-268
[37] = system: SF-295
[38] = system: SF-539
[39] = system: SK-MEL-28
[40] = system: SK-MEL-2
[41] = system: SK-MEL-5
[42] = system: SK-OV-3
[43] = system: SN12C
[44] = system: SNB-19
[45] = system: SR
[46] = system: SW-620
[47] = system: T47D
[48] = system: TK-10
[49] = system: U-251
[50] = system: UACC-257
[51] = system: UACC-62
[52] = system: UO-31
[53] = system: HCT-116
[54] = system: HOP-92
[55] = system: LOX IMVI
[56] = system: NCI-H226
[57] = system: OVCAR-4
[58] = system: SNB-75

For `OCCCCCNc1cc(O)nc(O)n1`, the GI50 [1] was > 100 µM (inactive), the GI50 [2] was > 100 µM (inactive) and the GI50 [3] was > 100 µM (inactive). For the same compound, the GI50 [4] was > 100 µM (inactive), the GI50 [5] was > 100 µM (inactive) and the GI50 [6] was > 100 µM (inactive). The GI50 [7] was > 100 µM (inactive), the GI50 [8] was > 100 µM (inactive) and the GI50 [9] was > 100 µM (inactive). For the same compound, the GI50 [10] was > 100 µM (inactive), the GI50 [53] was > 100 µM (inactive) and the GI50 [11] was greater than 100 µM. The GI50 [12] was > 100 µM (inactive), the GI50 [13] was > 100 µM (inactive) and the GI50 [54] was > 100 µM (inactive). For the same compound, the GI50 [14] was > 100 µM (inactive), the GI50 [15] was > 100 µM (inactive) and the GI50 [16] was > 100 µM (inactive). For the same compound, the GI50 [17] was > 100 µM (inactive), the GI50 [18] was > 100 µM (inactive) and the GI50 [55] was > 100 µM (inactive). The GI50 [19] was > 100 µM (inactive), the GI50 [20] was > 100 µM (inactive) and the GI50 [21] was > 100 µM (inactive). For the same compound, the GI50 [22] was > 100 µM (inactive), the GI50 [23] was > 100 µM (inactive) and the GI50 [24] was > 100 µM (inactive). The GI50 [25] was > 100 µM (inactive), the GI50 [56] was > 100 µM (inactive) and the GI50 [26] was > 100 µM (inactive). For the same compound, the GI50 [27] was > 100 µM (inactive), the GI50 [28] was > 100 µM (inactive) and the GI50 [29] was > 100 µM (inactive). For the same compound, the GI50 [30] was > 100 µM (inactive), the GI50 [57] was > 100 µM (inactive) and the GI50 [31] was > 100 µM (inactive). The GI50 [32] was > 100 µM (inactive), the GI50 [33] was > 100 µM (inactive) and the GI50 [34] was > 100 µM (inactive). The GI50 [35] was > 100 µM (inactive), the GI50 [36] was > 100 µM (inactive) and the GI50 [37] was > 100 µM (inactive). The GI50 [38] was > 100 µM (inactive), the GI50 [39] was > 100 µM (inactive) and the GI50 [40] was > 100 µM (inactive). The GI50 [41] was > 100 µM (inactive), the GI50 [42] was > 100 µM (inactive) and the GI50 [43] was > 100 µM (inactive). For the same compound, the GI50 [44] was > 100 µM (inactive), the GI50 [58] was > 100 µM (inactive) and the GI50 [45] was > 100 µM (inactive). For the same compound, the GI50 [46] was > 100 µM (inactive), the GI50 [47] was > 100 µM (inactive) and the GI50 [48] was > 100 µM (inactive). The GI50 [49] was > 100 µM (inactive), the GI50 [50] was > 100 µM (inactive) and the GI50 [51] was > 100 µM (inactive). The GI50 [52] was > 100 µM (inactive).
With `COc1ccc(CNc2cc(=O)n(C)c(=O)[nH]2)cc1` the GI50 [1] was > 100 µM (inactive), the GI50 [2] was > 100 µM (inactive) and the GI50 [3] was > 100 µM (inactive). The GI50 [4] was > 100 µM (inactive), the GI50 [5] was > 100 µM (inactive) and the GI50 [6] was > 100 µM (inactive). The GI50 [7] was > 100 µM (inactive), the GI50 [8] was > 100 µM (inactive) and the GI50 [9] was > 100 µM (inactive). The GI50 [10] was > 100 µM (inactive), the GI50 [53] was > 100 µM (inactive) and the GI50 [11] was greater than 100 µM. The GI50 [13] was > 100 µM (inactive), the GI50 [54] was > 100 µM (inactive) and the GI50 [14] was > 100 µM (inactive). The GI50 [15] was > 100 µM (inactive), the GI50 [16] was > 100 µM (inactive) and the GI50 [17] was > 100 µM (inactive). For the same compound, the GI50 [18] was > 100 µM (inactive), the GI50 [55] was > 100 µM (inactive) and the GI50 [19] was > 100 µM (inactive). For the same compound, the GI50 [20] was > 100 µM (inactive), the GI50 [21] was > 100 µM (inactive) and the GI50 [22] was > 100 µM (inactive). The GI50 [23] was > 100 µM (inactive), the GI50 [24] was > 100 µM (inactive) and the GI50 [25] was > 100 µM (inactive). For the same compound, the GI50 [56] was > 100 µM (inactive), the GI50 [26] was > 100 µM (inactive) and the GI50 [27] was > 100 µM (inactive). For the same compound, the GI50 [28] was > 100 µM (inactive), the GI50 [29] was > 100 µM (inactive) and the GI50 [30] was > 100 µM (inactive). The GI50 [57] was > 100 µM (inactive), the GI50 [31] was > 100 µM (inactive) and the GI50 [32] was > 100 µM (inactive). The GI50 [33] was > 100 µM (inactive), the GI50 [34] was > 100 µM (inactive) and the GI50 [35] was 35.6 µM (inactive). The GI50 [36] was > 100 µM (inactive), the GI50 [37] was > 100 µM (inactive) and the GI50 [38] was > 100 µM (inactive). The GI50 [39] was > 100 µM (inactive), the GI50 [40] was > 100 µM (inactive) and the GI50 [41] was > 100 µM (inactive). The GI50 [42] was > 100 µM (inactive), the GI50 [43] was > 100 µM (inactive) and the GI50 [44] was > 100 µM (inactive). For the same compound, the GI50 [58] was 33.3 µM (inactive), the GI50 [45] was > 100 µM (inactive) and the GI50 [46] was > 100 µM (inactive). The GI50 [47] was > 100 µM (inactive), the GI50 [48] was > 100 µM (inactive) and the GI50 [49] was > 100 µM (inactive). The GI50 [50] was > 100 µM (inactive), the GI50 [51] was > 100 µM (inactive) and the GI50 [52] was > 100 µM (inactive).
